Assay results from patent US9040663B2, “Melanocortin receptor-specific peptides” (AstraZeneca AB, priority 2009, dated 2015).
Like-named read-outs stand apart in the source and are kept apart here.

Key:
hMC4-R [1] = target: T1, hMC4-R (Homo sapiens (Human), UniProt P32245); test: High and low density hMC4-R functional assay (cAMP, HEK293-T-REx-MC4-R cells); type: cell-based; details: for Emax: NDP-α-MSH = 100%, read-out: Intrinsic Activity (%)
MC1-R = test: Competitive inhibition binding assay using [I125]-NDP-α-MSH, MC1-R; details: membranes of B-16 mouse melanoma cells (endogenous MC1-R), in some instances HEK-293 hMC1-R
Method: 7.1 Competitive Inhibition Assay using [I^125]-NDP-α-MSH.
A competitive inhibition binding assay was performed for exemplified peptides according to the invention using membrane homogenates prepared from HEK-293 cells that express recombinant hMC4-R, hMC3-R, or hMC5-R, and from B-16 mouse melanoma cells (containing endogenous MC1-R). In some instances, HEK-293 cells that express recombinant hMC1-R were employed. Assays were performed in 96 well GF/B Millipore multiscreen filtration plates (MAFB NOB10) pre-coated with 0.5% bovine serum albumin (Fraction V). Membrane homogenates were incubated with 0.2 nM (for hMC4-R) 0.4 nM (for MC3-R and MC5-R) or 0.1 nM (for mouse B16 MC1-R or hMC1-R) [I^125]-NDP-α-MSH (Perkin Elmer) and increasing concentrations of test peptides of the present invention in buffer containing 25 mM HEPES buffer (pH 7.5) with 100 mM NaCl, 2 mM CaCl2, 2 mM MgCl2, 0.3 mM 1,10-phenanthroline, and 0.2% bovine serum albumin. After incubation for 60 minutes at 37° C., the assay mixture was filtered and the membranes washed three times with ice-cold buffer. Filters were dried and counted in a gamma counter for bound radioactivity. […] Maximal specific binding (100%) was defined as the difference in radioactivity (cpm) bound to cell membranes in the absence and presence of 1 μM NDP-α-MSH. […] Each assay was conducted in triplicate and the actual mean values are described, with results less than 0% reported as 0%. Ki values for test peptides of the present invention were determined using Graph-Pad Prism® curve-fitting software.

hMC4-R [2] = target: T1, hMC4-R; test: Competitive inhibition binding assay using [I125]-NDP-α-MSH, hMC4-R; details: membranes of HEK-293 cells expressing recombinant hMC4-R, read-out: MC4-R Ki
[3] = 0.1 ng/mL Doxycycline (low density hMC4-R system)
[4] = 10 ng/mL Doxycycline (high density hMC4-R system)

T1 sequence (P32245 whole entry): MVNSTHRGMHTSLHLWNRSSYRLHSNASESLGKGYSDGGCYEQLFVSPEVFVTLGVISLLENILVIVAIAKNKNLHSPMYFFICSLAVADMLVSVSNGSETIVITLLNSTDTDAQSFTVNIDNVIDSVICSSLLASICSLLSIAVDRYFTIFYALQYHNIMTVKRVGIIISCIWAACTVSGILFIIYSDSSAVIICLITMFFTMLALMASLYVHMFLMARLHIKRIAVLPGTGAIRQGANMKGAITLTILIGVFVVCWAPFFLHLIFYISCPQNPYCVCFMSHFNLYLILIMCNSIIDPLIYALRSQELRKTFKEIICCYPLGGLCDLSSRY

Compound	EC50 (hMC4-R [1]; [3]) [nM]	Emax (hMC4-R [1]; [3]) [%]	Emax (hMC4-R [1]; [4]) [%]	Ki (MC1-R) [nM]	Ki (hMC4-R [2]) [nM]	EC50 (hMC4-R [1]; [4]) [nM]
CC(=O)N[C@@H](CCCNC(=N)N)C(=O)N[C@H]1CCC(=O)NCCC[C@@H](C(N)=O)NC(=O)[C@H](Cc2c[nH]c3ccccc23)NC(=O)[C@H](CCCNC(=N)N)NC(=O)[C@@H](Cc2ccc(C#N)cc2)NC(=O)[C@H]([C@@H](C)O)NC1=O [Example 44, Ac-Arg-cyclo(Glu-Thr-D-Phe(4-CN)-Arg-Trp-Orn)-NH2]	11	22	99	1620	18	–
CC(=O)N[C@H](CCCNC(=N)N)C(=O)N[C@H]1CCCNC(=O)CC[C@@H](C(N)=O)NC(=O)[C@H](Cc2c[nH]c3ccccc23)NC(=O)[C@H](CCCNC(=N)N)NC(=O)[C@@H](Cc2cccc(Cl)c2)NC(=O)[C@H](Cc2c[nH]cn2)NC1=O [Example 51, Ac-D-Arg-cyclo(Orn-His-D-Phe(3-Cl)-Arg-Trp-Glu)-NH2]	0.64	22	95	3	0.6	0.4
CC(=O)N[C@H](CCCNC(=N)N)C(=O)N[C@H]1CCCNC(=O)CC[C@@H](C(N)=O)NC(=O)[C@H](Cc2c[nH]c3ccccc23)NC(=O)[C@H](CCCNC(=N)N)NC(=O)[C@@H](Cc2ccc(C#N)cc2)NC(=O)[C@H](Cc2c[nH]cn2)NC1=O [Example 52, Ac-D-Arg-cyclo(Orn-His-D-Phe(4-CN)-Arg-Trp-Glu)-NH2]	0.325	31	99	6	0.6	0.2
CC(=O)N[C@H](CCCNC(=N)N)C(=O)N[C@H]1CCCNC(=O)CC[C@@H](C(N)=O)NC(=O)[C@H](Cc2c[nH]c3ccccc23)NC(=O)[C@H](CCCNC(=N)N)NC(=O)[C@@H](Cc2ccc(F)cc2)NC(=O)[C@H](Cc2c[nH]cn2)NC1=O [Example 57, Ac-D-Arg-cyclo(Orn-His-D-Phe(4-F)-Arg-Trp-Glu)-NH2]	0.25	89	100	1	0.65	0.095
CC(=O)N[C@@H](CCCNC(=N)N)C(=O)N[C@H]1CCC(=O)NCCC[C@@H](C(N)=O)NC(=O)[C@H](Cc2c[nH]c3ccccc23)NC(=O)[C@H](CCCNC(=N)N)NC(=O)[C@@H](Cc2ccc(F)cc2)NC(=O)[C@@H]2C[C@@H](O)CN2C1=O [Example 60, Ac-Arg-cyclo(Glu-Hyp-D-Phe(4-F)-Arg-Trp-Orn)-NH2]	0.45	62	95	89	1	0.14
CC(=O)N[C@@H](CCCNC(=N)N)C(=O)N[C@H]1CCC(=O)NCCC[C@@H](C(N)=O)NC(=O)[C@H](Cc2c[nH]c3ccccc23)NC(=O)[C@H](CCCNC(=N)N)NC(=O)[C@@H](Cc2ccccc2F)NC(=O)[C@@H]2C[C@@H](O)CN2C1=O [Example 64, Ac-Arg-cyclo(Glu-Hyp-D-Phe(2-F)-Arg-Trp-Orn)-NH2]	1	57	90	53	3	0.08
CC(=O)N[C@@H](CCCNC(=N)N)C(=O)N[C@H]1CCC(=O)NCCC[C@@H](C(N)=O)NC(=O)[C@H](Cc2c[nH]c3ccccc23)NC(=O)[C@H](CCCNC(=N)N)NC(=O)[C@@H](Cc2ccccc2F)NC(=O)[C@@H]2CCCN2C1=O [Example 66, Ac-Arg-cyclo(Glu-Pro-D-Phe(2-F)-Arg-Trp-Orn)-NH2]	5	32	88	95	6	0.265
CC(=O)N[C@@H](CCCNC(=N)N)C(=O)N[C@H]1CCC(=O)NCCC[C@@H](C(N)=O)NC(=O)[C@H](Cc2c[nH]c3ccccc23)NC(=O)[C@H](CCCNC(=N)N)NC(=O)[C@@H](Cc2ccc(F)cc2)NC(=O)[C@H](CCS(C)(=O)=O)NC1=O [Example 68, Ac-Arg-cyclo(Glu-Met(O2)-D-Phe(4-F)-Arg-Trp-Orn)-NH2]	0.85	55	91	33	2	0.075

Continued, values first:

EC50 (hMC4-R [1]; [3]) [nM]	Emax (hMC4-R [1]; [3]) [%]	Emax (hMC4-R [1]; [4]) [%]	Ki (MC1-R) [nM]	Ki (hMC4-R [2]) [nM]	EC50 (hMC4-R [1]; [4]) [nM]	Compound
–	12	87	10000	10	0.45	CC(=O)N[C@@H](CCCNC(=N)N)C(=O)N[C@H]1CCC(=O)NCCC[C@@H](C(N)=O)NC(=O)[C@H](Cc2c[nH]c3ccccc23)NC(=O)[C@H](CCCNC(=N)N)NC(=O)[C@@H](Cc2ccc(C#N)cc2)NC(=O)[C@H](CO)NC1=O [Example 45, Ac-Arg-cyclo(Glu-Ser-D-Phe(4-CN)-Arg-Trp-Orn)-NH2]
0.31	36	100	25	0.3	0.373	CC(=O)N[C@@H](CCCNC(=N)N)C(=O)N[C@H]1CCC(=O)NCCC[C@@H](C(N)=O)NC(=O)[C@H](Cc2c[nH]c3ccccc23)NC(=O)[C@H](CCCNC(=N)N)NC(=O)[C@@H](Cc2ccccc2Cl)NC(=O)[C@H](COCc2ccccc2)NC1=O [Example 47, Ac-Arg-cyclo(Glu-Ser(Bzl)-D-Phe(2-Cl)-Arg-Trp-Orn)-NH2]
–	6	93	545	15	4	CC(=O)N[C@@H](CCCNC(=N)N)C(=O)N[C@H]1CCC(=O)NCCC[C@@H](C(N)=O)NC(=O)[C@H](Cc2c[nH]c3ccccc23)NC(=O)[C@H](CCCNC(=N)N)NC(=O)[C@@H](Cc2ccccc2Cl)NC(=O)[C@H](Cc2cccc(C(N)=O)c2)NC1=O [Example 48, Ac-Arg-cyclo(Glu-Phe(3-C(═O)—NH2)-D-Phe(2-Cl)-D-Phe-Arg-Trp-Orn)-NH2]
2	74	93	8	8	0.235	CC(=O)N[C@@H](CCCNC(=N)N)C(=O)N[C@H]1CCC(=O)NCCC[C@@H](C(=O)O)NC(=O)[C@H](Cc2c[nH]c3ccccc23)NC(=O)[C@H](CCCNC(=N)N)NC(=O)[C@@H](Cc2ccccc2Cl)NC(=O)[C@H](CCCN)NC1=O [Example 49, Ac-Arg-cyclo(Glu-Orn-D-Phe(2-Cl)-Arg-Trp-Orn)-OH]
0.13	86	90	0.75	0.95	0.13	CC(=O)N[C@H](CCCNC(=N)N)C(=O)N[C@H]1CCCNC(=O)CC[C@@H](C(N)=O)NC(=O)[C@H](Cc2c[nH]c3ccccc23)NC(=O)[C@H](CCCNC(=N)N)NC(=O)[C@@H](Cc2ccccc2F)NC(=O)[C@H](Cc2c[nH]cn2)NC1=O [Example 53, Ac-D-Arg-cyclo(Orn-His-D-Phe(2-F)-Arg-Trp-Glu)-NH2]
10	28	98	23	20	0.8	CC(=O)N[C@@H](CCCNC(=N)N)C(=O)N[C@H]1CCC(=O)NCCC[C@@H](C(=O)O)NC(=O)[C@H](Cc2c[nH]c3ccccc23)NC(=O)[C@H](CCCNC(=N)N)NC(=O)[C@@H](Cc2cccc(Cl)c2)NC(=O)[C@H](CCCN)NC1=O [Example 55, Ac-Arg-cyclo(Glu-Orn-D-Phe(3-Cl)-Arg-Trp-Orn)-OH]
5	41	98	30	11	0.3	CC(=O)NCC[C@@H]1NC(=O)[C@@H](NC(=O)[C@H](CCCNC(=N)N)NC(C)=O)CCC(=O)NCCC[C@@H](C(N)=O)NC(=O)[C@H](Cc2c[nH]c3ccccc23)NC(=O)[C@H](CCCNC(=N)N)NC(=O)[C@@H](Cc2ccccc2Cl)NC1=O [Example 56, Ac-Arg-cyclo(Glu-Dab(Acetyl)-D-Phe(2-Cl)-Arg-Trp-Orn)-NH2]
0.37	30	93	12	0.35	0.157	CC(=O)N[C@@H](CCCNC(=N)N)C(=O)N[C@H]1CCC(=O)NCCC[C@@H](C(N)=O)NC(=O)[C@H](Cc2c[nH]c3ccccc23)NC(=O)[C@H](CCCNC(=N)N)NC(=O)[C@@H](Cc2ccccc2Cl)NC(=O)[C@H]([C@@H](C)OCc2ccccc2)NC1=O [Example 63, Ac-Arg-cyclo(Glu-Thr(Bzl)-D-Phe(2-Cl)-Arg-Trp-Orn)-NH2]
1	58	93	43	5	0.085	CC(=O)N[C@@H](CCCNC(=N)N)C(=O)N[C@H]1CCC(=O)NCCC[C@@H](C(N)=O)NC(=O)[C@H](Cc2c[nH]c3ccccc23)NC(=O)[C@H](CCCNC(=N)N)NC(=O)[C@@H](Cc2ccc(F)cc2)NC(=O)[C@H](CO)NC1=O [Example 65, Ac-Arg-cyclo(Glu-Ser-D-Phe(4-F)-Arg-Trp-Orn)-NH2]
